The test system of one data set is reserpinic rigidity. As to the kind of experiment: Antagonism against reserpinic rigidity (electromyogram provoked by dorsiflexion of the foot). The data set is classed as in vivo, rats. Also on record: key to Antagonism against reserpine: expressed in an increasing number of + as a function of the dose in mg/Kg; ++: expressed in an increasing number of + as a function of the dose in mg/Kg; +++: expressed in an increasing number of + as a function of the dose in mg/Kg. The note with it: for Antagonism against reserpine: i.v., rats; for Antagonism against reserpinic rigidity, in words: results of Table I, Examples 5, 6 and 7 at a dose of 20 mg/kg. Here is the method: The antagonism of the tested products against reserpinic rigidity was determined in rats using the procedure of Jurna I: Arch. Pharmak. Exp. Path., Vol. 260 (1968), p. 80-88 and the electromyogram (EMG) provoked by a dorsiflexion of the foot was determined with electrodes placed on the muscles of the anterior loge of the hind foot of the animal. A dose of 10 mg/Kg of reserpine was administered intraveinously and 30 minutes later when the muscle hypertonicity was maximal, the tested product was administered intraveinously at a dose of 10 or 20 mg/Kg. The electromyogram responses were determined before and after the administration of the tested compound and were compared for their intensity and duration.

Data set [1] in a line: Acute toxicity (50% lethal dose). The note with it: mouse, in vivo, ip, mice, mortality 48 hours after administration. The method, then: The 50% lethal dose (LD50) was determined for the products after intraperitoneal administration to mice and the mortality was determined 48 hours after the administration of the tested product.
Data set [2] concerns nigrostriatal bundle (dopaminergic activity). Put plainly: Rotating behavior after unilateral injury of nigrostriatal bundle, test (b): 6-hydroxydopamine lesion of substantia nigra. Format: in vivo. The following applies: i.p., male rats, 1 1/2 hours. Here is the method:
(§1) Among the animals having undergone a unilateral lesion of nigrostriatal bundle, the substances, having a dopaminergic activity induce a rotating behavior. The animals were male rats weighing about 250 g and female mice weighing about 22 g. The lesion was effected in test (a) in the right striatum of the male rats with a 2 mA anodic current for a duration of 30 seconds /Anden et al, Acta. Pharmacol. Toxicol., Vol. 24 (1966), p. 263-274/. The tested compounds were administered intraperitoneally to groups of 6 animals and they were individually placed in a rotometer which counted the number of rotations of each animal in two directions. Each test was continued for 11/2 hours.
In test (b) with the male rats, lesion was effected in the substantia nigra of each rat with 6-hydroxydopamine monohydrochloride at a dose of 20 μg per 4 μl of physiological serum containing 0.2 mg/ml of ascorbic acid by the method of Ungerstedt /Acta. physiol. scand., 1971 a, supp 367, p. 69-93/and the same conditions as in (a) were used.

The test system is the same in data set [3]. As to the kind of experiment: Rotating behavior after unilateral injury of nigrostriatal bundle, test (a): anodic lesion of right striatum. The following applies: i.p., male rats, 1 1/2 hours. Format: in vivo. The method, then:
as §1

The test system is the same in data set [4]. Put plainly: Rotating behavior after unilateral injury of nigrostriatal bundle, test (c): striatum lesion by aspiration. Format: in vivo. The note with it: 100 mg/kg, i.p., female mice, observed for an hour. Here is the method:
as §1, with “Each test was continued for 11/2 hours.” left out
In test (c) with female mice, a lesion of the striatum was effected with a hypodermic needle with a diameter of 0.5 mm by aspiration under vacuum for 5 seconds with the method of Lotti /Life Science, Vol. 10 (1971) I, p. 781-789/.

Another data set concerns carotid blood pressure. As to the kind of experiment: Hypotensive activity (carotid blood pressure, anesthetized rats). The data set is classed as in vivo, male rats, Sprague-Dawley S.P.F. The note with it: i.v. The method, then: The hypotensive activity was determined on male rats of the Sprague-Dawley S.P.F. strain weighing about 300 g and anesthesized with nembutal at an intraveinous dose of 50 mg/kg. The test product was administered intraveinously into the jugular vein and the carotid blood pressure was measured before and after the administration of the tested compound. The variation in the arterial pressure after the administration of the tested compound as compared to the initial arterial pressure as well as the time necessary for the pressure to return to the initial value were determined.

SMILES strings stand for the structures. Where a name gives a salt, the structure may show the parent alone.

Consider `CN1CCCC(c2ccc(O)c(O)c2)C1` (stereo not drawn) [Example 1, N-methyl-3-(3',4'-dihydroxyphenyl)-piperidine hydrobromide], for which the Antagonism against reserpine result in the data set with reserpinic rigidity (20 mg/kg) is reported as “++”. Besides, the LD50 at 48 h in data set [1] amounted to 150 mg/kg.

Consider `CC(=O)Oc1ccc(C2CCCN(C)C2)cc1OC(C)=O` (stereo not drawn) [Example 2, N-methyl-3-(3',4'-diacetoxyphenyl)-piperidine oxalate], for which the Antagonism against reserpine result in the data set on reserpinic rigidity (20 mg/kg) is listed as “++”. The compound further gave an LD50 at 48 h in data set [1] of 150 mg/kg.

With `CCN1CCCC(c2ccc(O)c(O)c2)C1` (stereo not drawn) [Example 3, N-ethyl-3-(3',4'-dihydroxyphenyl)-piperidine hydrobromide], the Antagonism against reserpine entry in the data set with reserpinic rigidity (20 mg/kg) is reported as “+”. Also, in data set [1], the LD50 at 48 h is 150 mg/kg. The “rotations, test (b)” value in data set [2] (25 mg/kg) was “contralateral rotations”. Also, the “rotations, test (a)” value in data set [3] (25 mg/kg) is “ipsilateral rotations”.

`CCCN1CCCC(c2ccc(O)c(O)c2)C1` (stereo not drawn) [Example 4, N-propyl-3-(3',4'-dihydroxyphenyl)-piperidine hydrobromide]: the Antagonism against reserpine entry in the data set with reserpinic rigidity (20 mg/kg) is “+”. Besides, the LD50 at 48 h in data set [1] was 150 mg/kg.

As to `Oc1ccc(C2CCCN(Cc3ccccc3)C2)cc1O` (stereo not drawn) [Example 5, N-benzyl-3-(3',4'-dihydroxyphenyl)-piperidine oxalate], the Antagonism against reserpine result with reserpinic rigidity (20 mg/kg) is listed as “+++”. Moreover, the “Antagonism against reserpinic rigidity, in words” value (“Antagonism … in words” for short) in the data set with reserpinic rigidity is “very active”. The LD50 at 48 h in data set [1] was 150 mg/kg. Also, in data set [2] (25 mg/kg), the “rotations, test (b)” value is “contralateral rotations”. Besides, the “rotations, test (a)” value in data set [3] (25 mg/kg) was “ipsilateral rotation”. Besides, in data set [4], the “rotation, test (c)” value was “ipsilateral rotation”.

Consider `CC(=O)Oc1ccc(C2CCCN(Cc3ccccc3)C2)cc1OC(C)=O` (stereo not drawn) [Example 6, N-benzyl-3-(3',4'-diacetoxyphenyl)-piperidine oxalate], for which the Antagonism against reserpine entry with reserpinic rigidity (20 mg/kg) is reported as “+++”. Moreover, the “Antagonism … in words” value in the data set with reserpinic rigidity was “very active”. The LD50 at 48 h in data set [1] is 300 mg/kg. Besides, in the data set on carotid blood pressure (10 mg/kg, hypotension of 20 to 30%), the duration of hypotension result is on record as “more than one hour”. Also, the “rotations, test (b)” value in data set [2] (25 mg/kg) is “contralateral rotations”. Also, the “rotations, test (a)” value in data set [3] (25 mg/kg) is “ipsilateral rotation”. Further, the “rotation, test (c)” value in data set [4] is recorded as “ipsilateral rotation”.

Take `Oc1ccc(C2CCCN(CCc3ccccc3)C2)cc1O` (stereo not drawn) [Example 7, N-(β-phenylethyl)-3-(3',4'-dihydroxyphenyl)-piperidine fumarate]: the Antagonism against reserpine result in the data set with reserpinic rigidity (10 mg/kg) is on record as “++”. Further, the “Antagonism … in words” value in the data set on reserpinic rigidity was “very active”. In addition, the LD50 at 48 h in data set [1] came out at 150 mg/kg. The duration of hypotension is 10 min in the data set with carotid blood pressure (0.1 mg/kg, hypotension of 5 to 10%) and “more than an hour” in the data set on carotid blood pressure (1 mg/kg, hypotension of 30%). Also, the hypotension in the data set with carotid blood pressure (1 mg/kg) came to 30%. For the same compound, in data set [2] (10 mg/kg), the “rotations, test (b)” value was “contralateral rotations”. Besides, the “rotations, test (a)” value in data set [3] (10 mg/kg) is given as “ipsilateral rotations”.

For the compound `CCCN1CCCC(c2ccc(OC(C)=O)c(OC(C)=O)c2)C1` (stereo not drawn) [Example 8, N-propyl-3-(3',4'-diacetoxyphenyl)-piperidine oxalate], the Antagonism against reserpine result in the data set on reserpinic rigidity (20 mg/kg) was “++”. In addition, in data set [1], the LD50 at 48 h was 250 mg/kg. The “rotations, test (b)” value in data set [2] (25 mg/kg) is listed as “contralateral rotations”. Besides, the “rotations, test (a)” value in data set [3] (25 mg/kg) is given as “ipsilateral rotations”.

With `CC(C)N1CCCC(c2ccc(O)c(O)c2)C1` (stereo not drawn) [Example 9, N-isopropyl-3-(3',4'-dihydroxyphenyl)-piperidine hydrobromide], the Antagonism against reserpine entry in the data set on reserpinic rigidity (20 mg/kg) was “+”. This compound gave an LD50 at 48 h in data set [1] of 150 mg/kg.

`C=CCN1CCCC(c2ccc(O)c(O)c2)C1` (stereo not drawn) [Example 10, N-allyl-3-(3',4'-dihydroxyphenyl)-piperidine hydrobromide] gave an LD50 at 48 h in data set [1] of 150 mg/kg. The “rotations, test (b)” value in data set [2] (25 mg/kg) is “contralateral rotations”.

What is called LD50 is the dose at which mortality reaches 50%.

The values are drawn from patent US4072685A, “3-(3',4'-Disubstituted) phenyl piperidines” (Roussel Uclaf, priority 1975, dated 1978).
